One data set relates to PI3K. The conditions noted are these: reversible inhibitors, literature; cited from earlier work.
Another data set has as its system human tumor xenografts. The conditions noted are these: mouse, in vivo; cited from earlier work.
In another data set the target is p110α/p85 (Homo sapiens, UniProt P42336). Description: Inhibition of isolated enzyme p110α/p85 (lipid kinase, [γ-33P]ATP, TLC). Format: biochemical. The conditions noted are these: recombinant enzyme, 100 μM ATP, nine concentrations, average of two experiments. The protocol: (§1) Compounds were evaluated for their ability to inhibit Class I PI 3-kinase enzymes p110δ/p85, p110α/p85, and p110β/p85. Reaction mixtures comprising 0.1 μg of a recombinant enzyme, 10 μg of L-α-phosphatidylinositol, and 2× Lipid Kinase Buffer (40 mM Tris-HCl, pH 7.4, 200 mM NaCl, 1 mM EDTA), which contains either DMSO only as a control or the test compound in DMSO (the final DMSO concentration is 1%), were activated by the addition of an ATP mix (5 mM MgCl2, 100 μM ATP, and 0.1 μL [γ^33P]ATP). Reactions were incubated at room temperature for 1 hr, and then stopped by the addition of 1M HCl. The lipids were then extracted using a two step procedure. Firstly, 200 μL of chloroform/methanol (1:1) was added, the biphasic reactions mixed and centrifuged briefly, and the inorganic phase was removed and discarded. Following this, 80 μL of methanol:HCl (1:1) was added and the same procedure followed. The organic phase (70 μL) was then transferred to a clean 1.6 mL tube and the reactions were dried using a Speedvac, with no heating, for 30 min. The reactions were spotted onto TLC plates (Merck Ltd) and developed for 1 hr in propanol-1:2 M acetic acid (13:7). The TLC plates were then dried at room temperature and quantified using a phosphorimager (StormImager, Amersham). Nine compound concentrations were used for each test compound to determine its IC50 value. Each experiment was performed twice and the average IC50 value is used herein.

The target in another data set is p110β/p85 (Homo sapiens, UniProt P42338). Briefly: Inhibition of isolated enzyme p110β/p85 (lipid kinase, [γ-33P]ATP, TLC). Format: biochemical. The conditions noted are these: recombinant enzyme, 100 μM ATP, nine concentrations, average of two experiments. The protocol:
as §1

The next data set addresses p110δ/p85 (Homo sapiens, UniProt O00329). Description: Inhibition of isolated enzyme p110δ/p85 (lipid kinase, [γ-33P]ATP, TLC). In kind it is biochemical. The conditions noted are these: recombinant enzyme, 100 μM ATP, nine concentrations, average of two experiments. The protocol: as §1
In the next data set the test system is NZB5. Briefly: Cellular growth inhibition, NZB5 (3H-thymidine incorporation). Conditions: five days incubation, 3H-thymidine over the last 6 hrs, read-out: Cell IC50 NZB5. Format: cell-based, human. The protocol: (§2) The compounds were evaluated against two early passage human cell lines NZB5 and NZOV9 (Marshall et al., Oncol. Res. 2004, 14, 297). The cells were grown in ITS medium (α-modified minimal essential medium supplemented insulin, transferrin, selenite, and 5% fetal bovine serum) and grown on 96-well tissue culture plates under an atmosphere of 5% O2, 5% CO2, and 90% N2. Individual wells contained 500-1,000 cells (depending on the growth rate) in a volume of 150 μL. Compounds were added at 10-fold concentration steps to a maximum of 20 μM and plates were incubated for five days, with ^3H-thymidine being added over the last 6 hrs. Cells were harvested and incorporated radioactivity measured. Duplicate samples were analyzed for each compound dose with multiple control samples.
A general note: Uptake of a labelled nucleoside into DNA is a usual measure of proliferation.

Another data set deals with NZOV9. Description: Cellular growth inhibition, NZOV9 (3H-thymidine incorporation). Format: cell-based, human. Conditions: five days incubation, 3H-thymidine over the last 6 hrs, read-out: Cell IC50 NZOV9. The protocol:
as §2

Where two headings read alike, the source gives them in different places. Some results are limits rather than exact numbers.

p110β/p85, sequence (P42338 whole entry, species assumed): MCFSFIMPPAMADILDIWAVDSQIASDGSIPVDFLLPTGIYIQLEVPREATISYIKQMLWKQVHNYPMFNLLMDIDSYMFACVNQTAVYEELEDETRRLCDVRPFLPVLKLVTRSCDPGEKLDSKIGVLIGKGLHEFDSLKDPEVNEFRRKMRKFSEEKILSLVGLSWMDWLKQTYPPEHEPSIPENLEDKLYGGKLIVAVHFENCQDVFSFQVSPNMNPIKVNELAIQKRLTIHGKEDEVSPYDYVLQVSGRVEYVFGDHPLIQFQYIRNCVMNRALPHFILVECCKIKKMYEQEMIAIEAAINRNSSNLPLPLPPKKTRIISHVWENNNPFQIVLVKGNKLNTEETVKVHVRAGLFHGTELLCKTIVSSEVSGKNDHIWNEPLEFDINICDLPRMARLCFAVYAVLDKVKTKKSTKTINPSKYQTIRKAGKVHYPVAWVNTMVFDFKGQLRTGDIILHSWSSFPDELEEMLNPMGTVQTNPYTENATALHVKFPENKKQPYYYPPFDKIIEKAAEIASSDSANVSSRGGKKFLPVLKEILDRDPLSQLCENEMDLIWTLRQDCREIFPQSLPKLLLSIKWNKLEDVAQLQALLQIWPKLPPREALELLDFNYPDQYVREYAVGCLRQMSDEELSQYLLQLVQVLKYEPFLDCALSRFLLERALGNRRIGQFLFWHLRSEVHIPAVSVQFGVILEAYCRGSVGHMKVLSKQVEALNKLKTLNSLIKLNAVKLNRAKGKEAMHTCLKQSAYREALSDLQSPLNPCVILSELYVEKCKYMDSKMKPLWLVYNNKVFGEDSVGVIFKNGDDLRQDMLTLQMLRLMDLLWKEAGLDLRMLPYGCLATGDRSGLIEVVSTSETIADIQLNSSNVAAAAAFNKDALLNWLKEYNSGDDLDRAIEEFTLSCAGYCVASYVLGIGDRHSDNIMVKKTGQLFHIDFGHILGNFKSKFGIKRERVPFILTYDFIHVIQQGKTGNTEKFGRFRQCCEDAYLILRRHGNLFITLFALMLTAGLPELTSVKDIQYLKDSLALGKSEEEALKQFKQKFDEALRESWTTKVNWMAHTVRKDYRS
p110β/p85, sequence (P27986 whole entry partner, species assumed): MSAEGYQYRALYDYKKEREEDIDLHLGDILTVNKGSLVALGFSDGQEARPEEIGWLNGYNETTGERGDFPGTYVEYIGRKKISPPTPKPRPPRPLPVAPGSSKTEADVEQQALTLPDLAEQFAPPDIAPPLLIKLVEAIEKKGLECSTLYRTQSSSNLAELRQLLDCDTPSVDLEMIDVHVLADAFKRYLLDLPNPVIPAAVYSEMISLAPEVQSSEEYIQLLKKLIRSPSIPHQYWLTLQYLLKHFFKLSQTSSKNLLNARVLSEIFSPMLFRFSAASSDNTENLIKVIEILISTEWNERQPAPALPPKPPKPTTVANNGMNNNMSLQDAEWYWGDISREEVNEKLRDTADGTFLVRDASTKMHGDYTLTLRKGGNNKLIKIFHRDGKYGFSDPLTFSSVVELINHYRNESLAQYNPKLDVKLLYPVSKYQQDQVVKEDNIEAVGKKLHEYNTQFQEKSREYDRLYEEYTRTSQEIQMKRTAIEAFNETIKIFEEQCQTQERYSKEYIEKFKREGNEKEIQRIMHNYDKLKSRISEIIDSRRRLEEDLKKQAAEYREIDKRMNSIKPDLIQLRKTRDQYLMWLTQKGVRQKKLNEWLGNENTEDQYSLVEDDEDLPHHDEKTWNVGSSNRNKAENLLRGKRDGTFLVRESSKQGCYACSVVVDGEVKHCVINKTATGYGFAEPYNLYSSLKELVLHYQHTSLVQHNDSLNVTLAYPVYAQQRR
p110δ/p85, sequence (O00329 whole entry, species assumed): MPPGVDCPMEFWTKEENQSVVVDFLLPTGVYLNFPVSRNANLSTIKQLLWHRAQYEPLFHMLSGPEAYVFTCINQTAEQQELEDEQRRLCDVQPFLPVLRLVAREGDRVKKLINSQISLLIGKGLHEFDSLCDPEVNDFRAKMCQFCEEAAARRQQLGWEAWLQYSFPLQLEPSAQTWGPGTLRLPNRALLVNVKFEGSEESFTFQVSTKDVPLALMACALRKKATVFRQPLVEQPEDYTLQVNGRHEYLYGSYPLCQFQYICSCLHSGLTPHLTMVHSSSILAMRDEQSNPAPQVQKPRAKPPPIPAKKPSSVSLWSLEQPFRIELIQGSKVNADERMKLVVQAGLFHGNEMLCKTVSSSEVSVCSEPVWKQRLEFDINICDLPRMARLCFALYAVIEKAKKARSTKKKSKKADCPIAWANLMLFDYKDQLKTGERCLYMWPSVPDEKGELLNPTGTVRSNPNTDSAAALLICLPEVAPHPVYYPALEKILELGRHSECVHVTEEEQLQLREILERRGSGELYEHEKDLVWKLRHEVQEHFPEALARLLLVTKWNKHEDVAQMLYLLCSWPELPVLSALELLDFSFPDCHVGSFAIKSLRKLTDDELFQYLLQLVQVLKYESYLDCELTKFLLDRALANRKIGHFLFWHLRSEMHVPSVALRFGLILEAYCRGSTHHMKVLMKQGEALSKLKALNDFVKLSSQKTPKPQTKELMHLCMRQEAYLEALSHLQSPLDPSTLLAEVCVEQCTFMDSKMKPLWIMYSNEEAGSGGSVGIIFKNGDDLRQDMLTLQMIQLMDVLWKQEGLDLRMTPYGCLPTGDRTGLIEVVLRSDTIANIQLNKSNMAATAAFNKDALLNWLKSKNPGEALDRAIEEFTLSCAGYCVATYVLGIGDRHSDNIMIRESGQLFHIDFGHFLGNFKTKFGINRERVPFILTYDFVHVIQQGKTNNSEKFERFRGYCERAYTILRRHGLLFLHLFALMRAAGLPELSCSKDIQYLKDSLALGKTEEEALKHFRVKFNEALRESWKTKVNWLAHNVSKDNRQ
p110δ/p85, sequence (P27986 whole entry partner, species assumed): as the sequence (P27986 whole entry partner, species assumed) above
p110α/p85, sequence (P42336 whole entry): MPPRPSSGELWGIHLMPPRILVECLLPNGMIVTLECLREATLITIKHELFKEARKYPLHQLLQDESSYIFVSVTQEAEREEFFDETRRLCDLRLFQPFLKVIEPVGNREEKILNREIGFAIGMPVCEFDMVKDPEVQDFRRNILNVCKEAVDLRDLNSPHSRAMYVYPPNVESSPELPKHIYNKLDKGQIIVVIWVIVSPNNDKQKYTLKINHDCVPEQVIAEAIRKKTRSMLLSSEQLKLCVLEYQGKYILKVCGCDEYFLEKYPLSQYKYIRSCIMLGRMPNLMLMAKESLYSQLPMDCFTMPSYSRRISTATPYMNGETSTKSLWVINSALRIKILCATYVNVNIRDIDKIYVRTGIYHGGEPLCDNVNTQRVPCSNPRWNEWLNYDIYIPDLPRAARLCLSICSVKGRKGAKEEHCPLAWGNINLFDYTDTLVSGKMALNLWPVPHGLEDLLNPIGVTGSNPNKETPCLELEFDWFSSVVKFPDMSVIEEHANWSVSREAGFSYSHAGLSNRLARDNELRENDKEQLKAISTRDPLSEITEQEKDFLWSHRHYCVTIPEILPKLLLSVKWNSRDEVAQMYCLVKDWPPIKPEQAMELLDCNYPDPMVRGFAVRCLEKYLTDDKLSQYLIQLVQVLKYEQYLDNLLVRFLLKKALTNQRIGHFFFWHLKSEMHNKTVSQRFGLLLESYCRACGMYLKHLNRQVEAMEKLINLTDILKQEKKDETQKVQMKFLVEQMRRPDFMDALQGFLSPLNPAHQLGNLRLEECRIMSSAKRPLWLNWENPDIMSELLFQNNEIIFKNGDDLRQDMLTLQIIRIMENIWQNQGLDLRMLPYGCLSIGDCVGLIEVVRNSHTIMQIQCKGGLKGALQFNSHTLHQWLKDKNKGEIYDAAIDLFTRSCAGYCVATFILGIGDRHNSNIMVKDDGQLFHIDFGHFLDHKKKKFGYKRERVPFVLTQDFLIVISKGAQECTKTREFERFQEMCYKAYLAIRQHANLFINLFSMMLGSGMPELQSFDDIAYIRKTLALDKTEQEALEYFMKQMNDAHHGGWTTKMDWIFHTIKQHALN
p110α/p85, sequence (P27986 whole entry partner): as the sequence (P27986 whole entry partner, species assumed) above

For the compound `Cc1cc(C(C)Nc2ccccc2)c2nc(N3CCOCC3)cc(=O)n2c1` (centres unmarked) [TGX221], the PI3K isoform selectivity entry in the data set on PI3K is listed as “β-selective”.

On to `O=c1cc(N2CCOCC2)oc2c(-c3ccccc3)cccc12` [LY294002], for which the tolerability entry with human tumor xenografts is reported as “well-tolerated”.

“N-{(3S)-1-[4-[2-(difluoromethyl)-4-methoxy-1H-benzimidazol-1-yl]-6-(4-morpholinyl)-1,3,5-triazin-2-yl]piperidinyl}-N-[3-(dimethylamino)propyl]methane-sulfonamide [Example 63]”: the IC50 (as a rule, the point on the concentration scale where inhibition reaches its midpoint) is 100 to 1000 nM on p110α/p85; greater than 1000 nM on p110β/p85; 100 to 1000 nM on p110δ/p85; 100 to 1000 nM with NZB5; 100 to 1000 nM in the data set with NZOV9.

On to `CN(C)CCCOc1cccc2c1nc(C(F)F)n2-c1nc(OC2CCN(S(C)(=O)=O)CC2)nc(N2CCOCC2)n1` [Example 7, N-[3-({2-(difluoromethyl)-1-[4-{[1-(methylsulfonyl)-4-piperidinyl]oxy}-6-(4-morpholinyl)-1,3,5-triazin-2-yl]-1H-benzimidazol-4-yl}oxy)propyl]-N,N-dimethylamine], for which the IC50 was greater than 1000 nM on p110β/p85; 100 to 1000 nM in the data set with NZB5 (Homo sapiens, NZB5); 100 to 1000 nM in the data set on NZOV9 (Homo sapiens, NZOV9).

On to `Cc1ccccc1-n1c(Cn2cnc3c(N)ncnc32)nc2cccc(C)c2c1=O` [IC87114], for which, in the data set with PI3K, the PI3K isoform selectivity entry is “δ-selective”.

`COc1cccc2c1nc(C(F)F)n2-c1nc(N2CCOCC2)nc(N(CCCN(C)C)C2CCN(S(=O)(=O)CCl)CC2)n1` [Example 59, N^1-{1-[(chloromethyl)sulfonyl]-4-piperidinyl}-N^1-[4-[2-(difluoromethyl)-4-methoxy-1H-benzimidazol-1-yl]-6-(4-morpholinyl)-1,3,5-triazin-2-yl]-N^3,N^3-dimethyl-1,3-propanediamine]: on p110β/p85, the IC50 was greater than 1000 nM.

As to `C=CS(=O)(=O)N1CCN(c2nc(N3CCOCC3)nc(-n3c(C(F)F)nc4c(OC)cccc43)n2)CC1` [Example 3, 2-(difluoromethyl)-4-methoxy-1-{4-(4-morpholinyl)-6-[4-(vinylsulfonyl)-1-piperazinyl]-1,3,5-triazin-2-yl}-1H-benzimidazole], the melting point (as a rule, the temperature of the solid-liquid transition) lay in the range of 242 to 244 °C. For the same compound, at p110α/p85, the IC50 was less than 100 nM. On p110β/p85, the IC50 is less than 100 nM. Further, at p110δ/p85, the IC50 is less than 100 nM. In the data set on NZB5 (Homo sapiens, NZB5), the IC50 is 100 to 1000 nM. Further, the IC50 in the data set with NZOV9 (Homo sapiens, NZOV9) is less than 100 nM.

`COc1cccc2c1nc(C(F)F)n2-c1nc(Nc2ccc(N(C)S(C)(=O)=O)nc2)nc(N2CCOCC2)n1` [Example 101, N-(5-{[4-[2-(difluoromethyl)-4-methoxy-1H-benzimidazol-1-yl]-6-(4-morpholinyl)-1,3,5-triazin-2-yl]amino}-2-pyridinyl)-N-methylmethanesulfonamide] registered a melting point of 250 to 253 °C. The IC50 on p110α/p85 was less than 100 nM. The IC50 on p110β/p85 lay in the range of 100 to 1000 nM. Further, the IC50 at p110δ/p85 was less than 100 nM. Besides, the IC50 in the data set on NZB5 (Homo sapiens, NZB5) was less than 100 nM. Further, the IC50 in the data set on NZOV9 (Homo sapiens, NZOV9) is less than 100 nM.

`COc1cccc2c1nc(C(F)F)n2-c1nc(N2CCOCC2)cc(N(C)C2CCN(S(C)(=O)=O)CC2)n1` [Example 6, 2-[2-(difluoromethyl)-4-methoxy-1H-benzimidazol-1-yl]-N-methyl-N-[1-(methylsulfonyl)-4-piperidinyl]-6-(4-morpholinyl)-4-pyrimidinamine] yielded a melting point of 191 to 193 °C. The IC50 at p110α/p85 is less than 100 nM. The IC50 on p110β/p85 is less than 100 nM. On p110δ/p85, the IC50 is less than 100 nM. Besides, in the data set on NZB5 (Homo sapiens, NZB5), the IC50 fell in the range of 100 to 1000 nM. Besides, the IC50 with NZOV9 (Homo sapiens, NZOV9) was less than 100 nM.

As for `FC(F)c1nc2ccccc2n1-c1nc(N2CCOCC2)nc(N2CCOCC2)n1` [ZSTK474], the PI3K isoform selectivity entry in the data set on PI3K is “non-selective”.

Regarding `Oc1cccc(-c2nc(N3CCOCC3)c3oc4ncccc4c3n2)c1` [PI103], in the data set with PI3K, the PI3K isoform selectivity entry is given as “slightly α-selective”.

These data come from US8772287B2, “Pyrimidinyl and 1,3,5-triazinyl benzimidazole sulfonamides and their use in cancer therapy” (VetDC, Inc., priority 2009, dated 2014).
